ChEMBL document CHEMBL4177736, “Monoterpene indole alkaloid azine derivatives as MDR reversal agents” (Bioorg Med Chem, 2018)
The source made the active and inactive calls. No cut-off for these calls is given here.

Columns and labels:
[1] = Inhibition of P-gp (unknown origin) expressed in mouse NIH/3T3 cells assessed as reduction in rhodamine 123 efflux at 20 uM incubated for 30 mins by flow cytometric analysis relative to control; assay type: cell-based; conditions: Homo sapiens
MRP1 [2] = target: T1, MRP1 (Homo sapiens, UniProt P33527); experiment: Inhibition of MRP1 (unknown origin) expressed in HEK293FlpIN cells assessed as reduction in calcein-AM efflux at 20 uM incubated for 30 mins by flow cytometric analysis relative to control; assay type: cell-based; conditions: HEK293FlpIN cells expressing MRP1, probe calcein-AM
NIH3T3 [3] = experiment: Cytotoxicity against mouse NIH/3T3 cells assessed as reduction in cell viability at 20 uM after 72 hrs by MTT assay; assay type: cell-based; conditions: nih3t3, 72 h
BHK-21 [4] = experiment: Cytotoxicity against MRP1-expressing BHK21 cells assessed as growth inhibition at 20 uM after 72 hrs by MTT assay; assay type: functional; conditions: Mesocricetus auratus; for inhibition of growth at 20 µM: BHK-21, 72 h, read-out: GI
BCRP (ABCG2) = target: T2, BCRP (ABCG2) (Homo sapiens, UniProt Q9UNQ0); experiment: Inhibition of BCRP (unknown origin) expressed in HEK293 cells assessed as reduction in mitoxantrone efflux at 20 uM incubated for 30 mins by flow cytometric analysis relative to control; assay type: cell-based; conditions: HEK293 cells expressing BCRP, probe mitoxantrone
T2 sequence (Q9UNQ0 whole entry): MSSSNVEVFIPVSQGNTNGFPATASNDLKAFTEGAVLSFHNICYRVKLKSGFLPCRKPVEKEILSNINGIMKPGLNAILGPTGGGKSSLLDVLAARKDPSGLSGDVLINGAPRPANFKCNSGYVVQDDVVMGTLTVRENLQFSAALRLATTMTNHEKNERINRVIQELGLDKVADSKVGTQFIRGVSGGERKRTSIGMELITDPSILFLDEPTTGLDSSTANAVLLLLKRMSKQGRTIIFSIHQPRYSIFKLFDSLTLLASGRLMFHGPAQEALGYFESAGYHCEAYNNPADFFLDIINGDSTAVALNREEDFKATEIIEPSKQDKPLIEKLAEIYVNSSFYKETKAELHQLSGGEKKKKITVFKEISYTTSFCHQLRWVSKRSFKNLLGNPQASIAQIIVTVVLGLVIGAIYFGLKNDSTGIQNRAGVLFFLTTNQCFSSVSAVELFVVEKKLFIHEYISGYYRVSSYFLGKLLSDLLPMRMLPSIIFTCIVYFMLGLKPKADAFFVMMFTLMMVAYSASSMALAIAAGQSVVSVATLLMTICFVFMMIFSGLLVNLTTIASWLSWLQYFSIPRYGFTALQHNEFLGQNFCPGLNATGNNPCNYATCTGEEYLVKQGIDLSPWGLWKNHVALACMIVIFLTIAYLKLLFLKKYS

BHK-21 [5] = experiment: Cytotoxicity against wild type BHK21 cells assessed as reduction in cell viability at 20 uM after 72 hrs by MTT assay; assay type: cell-based, Mesocricetus auratus; conditions: hamster, bhk-21, 72 h
NIH3T3 [6] = experiment: Cytotoxicity against MDR1-expressing mouse NIH/3T3 cells assessed as growth inhibition at 20 uM after 72 hrs by MTT assay; assay type: functional, cell-based
MRP1 [7] = target: T1, MRP1; experiment: (§1) Inhibition of MRP1 (unknown origin) expressed in BHK21 cells assessed as GSH efflux at 20 uM incubated for 3 hrs measured every 30 secs for 2 mins by GSH reductase enzyme based assay (reference value: 100%); assay type: cell-based; conditions: BHK21 cells expressing MRP1, probe GSH
BHK-21 [8] = experiment: Resistance ratio of EC50 for MRP1-expressing BHK21 cells to EC50 for wild type BHK21 cells; assay type: functional, Mesocricetus auratus
BHK-21 [9] = experiment: Cytotoxicity against MRP1-expressing BHK21 cells assessed as cell death after 72 hrs by MTT assay; assay type: functional, cell-based; conditions: Mesocricetus auratus, BHK-21, 72 h
[10] = target: T3, Multidrug resistance-associated protein 1 (Homo sapiens, UniProt P33527); experiment: as §1; assay type: cell-based; conditions: 3 h, 20 µM
[11] = target: T3, Multidrug resistance-associated protein 1; experiment: Inhibition of MRP1 (unknown origin) expressed in HEK293FlpIN cells assessed as reduction in calcein-AM efflux incubated for 30 mins by flow cytometric analysis; assay type: cell-based

T1 sequence (P33527 whole entry): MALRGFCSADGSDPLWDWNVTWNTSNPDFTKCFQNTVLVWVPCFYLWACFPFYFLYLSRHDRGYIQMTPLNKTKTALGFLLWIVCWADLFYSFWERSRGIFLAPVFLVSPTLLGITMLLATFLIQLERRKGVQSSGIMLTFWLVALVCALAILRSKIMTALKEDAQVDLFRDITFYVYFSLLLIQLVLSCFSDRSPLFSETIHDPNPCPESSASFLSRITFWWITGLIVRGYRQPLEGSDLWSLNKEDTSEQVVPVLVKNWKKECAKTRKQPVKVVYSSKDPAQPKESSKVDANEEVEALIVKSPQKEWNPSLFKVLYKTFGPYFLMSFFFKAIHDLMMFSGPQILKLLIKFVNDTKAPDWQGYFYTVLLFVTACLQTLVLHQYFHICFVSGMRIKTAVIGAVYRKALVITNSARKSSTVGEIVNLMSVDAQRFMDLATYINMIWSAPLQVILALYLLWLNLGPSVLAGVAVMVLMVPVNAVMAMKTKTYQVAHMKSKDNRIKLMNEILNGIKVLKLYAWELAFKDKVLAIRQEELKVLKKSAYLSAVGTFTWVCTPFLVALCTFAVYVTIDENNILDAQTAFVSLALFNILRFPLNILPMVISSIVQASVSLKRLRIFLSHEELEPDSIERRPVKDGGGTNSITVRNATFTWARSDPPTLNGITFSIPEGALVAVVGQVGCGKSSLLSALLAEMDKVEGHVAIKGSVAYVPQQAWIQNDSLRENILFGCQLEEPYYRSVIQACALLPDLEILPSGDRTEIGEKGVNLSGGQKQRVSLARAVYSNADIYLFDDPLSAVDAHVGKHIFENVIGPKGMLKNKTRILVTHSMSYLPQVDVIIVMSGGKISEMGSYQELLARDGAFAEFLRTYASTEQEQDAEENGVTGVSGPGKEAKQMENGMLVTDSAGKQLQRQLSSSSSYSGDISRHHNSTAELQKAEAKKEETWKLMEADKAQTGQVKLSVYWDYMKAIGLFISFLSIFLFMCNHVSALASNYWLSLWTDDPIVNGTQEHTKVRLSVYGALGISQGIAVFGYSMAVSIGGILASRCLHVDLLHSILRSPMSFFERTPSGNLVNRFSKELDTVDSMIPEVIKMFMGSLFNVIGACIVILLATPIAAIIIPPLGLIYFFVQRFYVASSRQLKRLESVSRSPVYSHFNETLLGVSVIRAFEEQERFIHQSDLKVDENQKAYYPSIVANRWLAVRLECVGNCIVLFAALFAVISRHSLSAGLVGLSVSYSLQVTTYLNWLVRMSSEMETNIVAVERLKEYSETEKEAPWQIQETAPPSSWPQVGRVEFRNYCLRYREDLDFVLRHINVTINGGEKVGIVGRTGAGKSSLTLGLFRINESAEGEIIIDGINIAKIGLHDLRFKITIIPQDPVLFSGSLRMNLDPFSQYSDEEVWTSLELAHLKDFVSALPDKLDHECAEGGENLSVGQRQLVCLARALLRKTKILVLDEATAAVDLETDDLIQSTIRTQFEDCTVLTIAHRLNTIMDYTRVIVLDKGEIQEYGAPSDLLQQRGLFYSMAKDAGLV
T3 sequence (P33527 whole entry): as above

SMILES | inhibition at 0.5 h, 20 µM (MRP1 [2]) [%] | inhibition at 3 h, 20 µM (MRP1 [7]) [%] | inhibition (INH) [10] | IC50 [11] [µM] | inhibition (INH) ([11]; human, 0.5 h) | inhibition [1] [%] | Activity (NIH3T3 [3]) | inhibition of growth at 20 µM (BHK-21 [4]) [%] | inhibition at 0.5 h, 20 µM (BCRP (ABCG2)) [%] | Activity (BHK-21 [5]) | growth inhibition (GI) (NIH3T3 [6]) | growth inhibition (GI) (BHK-21 [4]) | Ratio EC50 (BHK-21 [8]) | EC50 (BHK-21 [9]) [µM]
CC[C@@H]1CN(C)[C@H]2Cc3c([nH]c4ccccc34)/C(=N/N=C\c3ccccc3[N+](=O)[O-])C[C@H]1[C@H]2C(=O)OC | 14.6 |  |  |  |  | 42.9 | Non-Toxic | 90 to 98 | -0.1 | Non-Toxic | Active |  |  | 
CC[C@H]1CN(C)[C@H]2Cc3c([nH]c4ccccc34)/C(=N/N=C\c3ccccc3[N+](=O)[O-])C[C@H]1[C@H]2C(=O)OC | 29.5 |  |  |  |  | 57.4 | Non-Toxic |  | 4.5 |  | Active |  |  | 
CC[C@@H]1CN(C)[C@H]2Cc3c([nH]c4ccccc34)/C(=N/N=C\C3CCCC3)C[C@H]1[C@H]2C(=O)OC | 19.1 |  |  |  |  | 2.7 | Non-Toxic |  | -2.3 |  | Active |  |  | 
CCC(/C=N\N=C1/C[C@@H]2[C@@H](CC)CN(C)[C@@H](Cc3c1[nH]c1ccccc31)[C@@H]2C(=O)OC)CC | 30.3 | 63 to 75 |  |  |  | 26.5 | Non-Toxic |  | 8.2 | Non-Toxic | Active | Active | 0.63 | 18
CC[C@H]1CN(C)[C@H]2Cc3c([nH]c4ccccc34)/C(=N/N=C\C3CCCC3)C[C@H]1[C@H]2C(=O)OC | 35.5 |  |  |  |  | 30.3 | Non-Toxic |  | 0.8 |  | Active |  |  | 
CC[C@@H]1CN(C)[C@H]2Cc3c([nH]c4ccccc34)/C(=N/N=C\C(C)(C)C)C[C@H]1[C@H]2C(=O)OC | 2.5 | 63 to 75 |  |  |  | 3.1 | Non-Toxic |  | 1.3 | Non-Toxic | Active | Active | 0.83 | 57
CC[C@H]1CN(C)[C@H]2Cc3c([nH]c4ccccc34)/C(=N/N=C\c3ccc([N+](=O)[O-])cc3)C[C@H]1[C@H]2C(=O)OC | 47.5 |  |  |  |  | 7.5 | Non-Toxic | 90 to 98 | 2.2 | Non-Toxic | Active |  |  | 
CC[C@H]1CN(C)[C@H]2Cc3c([nH]c4ccccc34)/C(=N/N=C\C=C\c3ccccc3)C[C@H]1[C@H]2C(=O)OC | 20.3 |  |  |  |  | 45.8 | Non-Toxic | 90 to 98 | -0.3 | Non-Toxic | Active |  |  | 
CC[C@@H]1CN(C)[C@H]2Cc3c([nH]c4ccccc34)/C(=N/N=C\c3ccc([N+](=O)[O-])cc3)C[C@H]1[C@H]2C(=O)OC | 23.4 |  |  |  |  | 14.7 | Non-Toxic | > 90 | 2.9 | Non-Toxic | Active |  |  | 
CC[C@H]1CN(C)[C@H]2Cc3c([nH]c4ccccc34)/C(=N/N=C\C(C)(C)C)C[C@H]1[C@H]2C(=O)OC | 15.9 | 63 to 75 |  |  |  | 10.3 | Non-Toxic |  | 2.4 | Non-Toxic | Active | Active | 0.74 | 32
CC[C@@H]1CN(C)[C@H]2Cc3c([nH]c4ccccc34)/C(=N/N=C\C=C\c3ccccc3)C[C@H]1[C@H]2C(=O)OC | 10 |  | Not Active |  |  | 26.7 | Non-Toxic | > 90 | -2 | Non-Toxic | Active |  |  | 
CCC(/C=N\N=C1/C[C@@H]2[C@H](CC)CN(C)[C@@H](Cc3c1[nH]c1ccccc31)[C@@H]2C(=O)OC)CC | 26.4 | 63 to 75 |  |  |  | 2.8 | Non-Toxic |  | 0.9 | Non-Toxic | Active | Active | 0.81 | 27.5

The next lines start with results.

inhibition at 0.5 h, 20 µM (MRP1 [2]) [%] | inhibition at 3 h, 20 µM (MRP1 [7]) [%] | inhibition (INH) [10] | IC50 [11] [µM] | inhibition (INH) ([11]; human, 0.5 h) | SMILES | inhibition [1] [%] | Activity (NIH3T3 [3]) | inhibition of growth at 20 µM (BHK-21 [4]) [%] | inhibition at 0.5 h, 20 µM (BCRP (ABCG2)) [%] | Activity (BHK-21 [5]) | growth inhibition (GI) (NIH3T3 [6]) | growth inhibition (GI) (BHK-21 [4]) | Ratio EC50 (BHK-21 [8]) | EC50 (BHK-21 [9]) [µM]
12.8 |  |  |  |  | CC[C@H]1CN(C)[C@H]2Cc3c([nH]c4ccccc34)/C(=N/N=C\c3cccc(Br)c3)C[C@H]1[C@H]2C(=O)OC | 28.6 | Non-Toxic | 90 to 98 | -3.1 | Non-Toxic | Active |  |  | 
56 | 63 to 75 |  |  |  | CC[C@H]1CN(C)[C@H]2Cc3c([nH]c4ccccc34)/C(=N/N=C\c3ccc[nH]3)C[C@H]1[C@H]2C(=O)OC | 27.6 | Non-Toxic | > 70 | 13.5 | Non-Toxic | Active |  |  | 
13.6 |  |  |  |  | CC[C@H]1CN(C)[C@H]2Cc3c([nH]c4ccccc34)/C(=N/N=C\c3cccc(Cl)c3)C[C@H]1[C@H]2C(=O)OC | 21.4 | Non-Toxic | 90 to 98 | -2.4 | Non-Toxic | Active |  |  | 
12 |  | Not Active |  |  | CC[C@@H]1CN(C)[C@H]2Cc3c([nH]c4ccccc34)/C(=N/N=C\c3cccc(Br)c3)C[C@H]1[C@H]2C(=O)OC | 11.4 | Non-Toxic | > 90 | -2.4 | Non-Toxic | Active |  | 0.73 | 16.5
80.7 |  |  | > 1 | Dose-dependent effect | CC[C@H]1CN(C)[C@H]2Cc3c([nH]c4ccccc34)/C(=N/N=C\c3ccc(O)c(OC)c3)C[C@H]1[C@H]2C(=O)OC | 38.6 | Non-Toxic | 90 to 98 | 10.5 | Non-Toxic | Active |  |  | 
10.8 |  |  |  |  | CC[C@@H]1CN(C)[C@H]2Cc3c([nH]c4ccccc34)/C(=N/N=C\c3cccc(Cl)c3)C[C@H]1[C@H]2C(=O)OC | 20.2 | Non-Toxic | 90 to 98 | -1.3 | Non-Toxic | Active |  |  | 
15.2 |  |  |  |  | CC[C@@H]1CN(C)[C@H]2Cc3c([nH]c4ccccc34)/C(=N/N=C\c3ccc[nH]3)C[C@H]1[C@H]2C(=O)OC | 4.5 | Non-Toxic |  | 3.7 |  | Active |  |  | 
